Legend:
Drosophila = test: Ex vivo immunosuppressive activity in Drosophila larvae assessed as inhibition of IMD signaling pathway by beta-galactosidase reporter gene assay; format: functional, organism-based
[1] = Cytotoxicity against Drosophila S2 cells by MTT assay; format: cell-based; conditions: Drosophila melanogaster
HUVEC [2] = test: Cytotoxicity against human HUVEC assessed as cell viability at 50 ug/ml; format: cell-based
HUVEC [3] = test: Immunosuppressive activity in human HUVEC assessed as inhibition of TNF-alpha-induced IL8 production at 50 ug/mL after 12 hrs by ELISA relative to control; format: functional; set-up: scale not given: the % may be the effect or the level left

Row | SMILES | EC50 (Drosophila) [µM] | EC50 [1] [µM] | Activity (HUVEC [2]) | Activity (HUVEC [3]) [%]
1 | O=C(/C=C/[C@H]1C[C@@H](O)[C@@H](O)C1)Nc1ccc(Cl)cc1 | > 180 | > 180 | – | –
2 | CN(C)C(=O)/C=C/[C@H]1C[C@@H](O)[C@@H](O)C1 | 120 | > 250 | – | –
3 | CNS(=O)(=O)/C=C/[C@H]1C[C@@H](O)[C@@H](O)C1 | 4 | > 250 | Non-toxic | 70
4 | CCOC(=O)/C=C/[C@H]1C[C@@H](O)[C@@H](O)C1 | 100 | > 350 | – | –
5 | O=C(/C=C/[C@H]1C[C@@H](O)[C@@H](O)C1)Nc1ccc(C(F)(F)F)cc1 | > 160 | > 160 | – | –
6 | CC(=O)c1ccc(NC(=O)/C=C/[C@H]2C[C@@H](O)[C@@H](O)C2)cc1 | > 180 | > 180 | – | –
7 | C/C=C/[C@H]1C[C@@H](O)[C@@H](O)C1 | 100 | > 350 | – | –
8 | O=C(/C=C/[C@H]1C[C@@H](O)[C@@H](O)C1)Nc1ccccc1 | 4.5 | > 200 | Non-toxic | 70
9 | O=C(/C=C/[C@H]1C[C@@H](O)[C@@H](O)C1)Nc1ccc(Cl)c(Cl)c1 | 56 | > 160 | – | –
10 | CCCCCC[C@H]1C[C@@H](O)[C@@H](O)C1 | 110 | 110 | – | –
11 | CNC(=O)CCCC[C@H]1C[C@@H](O)[C@@H](O)C1 | > 250 | > 250 | – | –
12 | CN(C)c1ccc(NC(=O)/C=C/[C@H]2C[C@@H](O)[C@@H](O)C2)cc1 | 19 | > 170 | – | –
13 | O=C(/C=C/[C@H]1C[C@@H](O)[C@@H](O)C1)NC1CC1 | 240 | > 250 | – | –
14 | CNC(=O)C[C@H]1C[C@@H](O)[C@@H](O)C1 | 55 | > 250 | – | –
15 | CNC(=O)/C=C/C(CCO)CCO | > 250 | > 250 | – | –
16 | NC(=O)/C=C/[C@H]1C[C@@H](O)[C@@H](O)C1 | 19 | > 250 | – | –
17 | CCC[C@H]1C[C@@H](O)[C@@H](O)C1 | 100 | > 350 | – | –
18 | O=C(/C=C/[C@H]1C[C@@H](O)[C@@H](O)C1)Nc1ccc([N+](=O)[O-])cc1 | > 170 | > 170 | – | –

Row | SMILES | EC50 (Drosophila) [µM] | EC50 [1] [µM] | Activity (HUVEC [2]) | Activity (HUVEC [3]) [%]
19 | O=C(/C=C/[C@H]1C[C@@H](O)[C@@H](O)C1)N1CCCCC1 | 180 | > 250 | – | –
20 | CNC(=O)CCC[C@H]1C[C@@H](O)[C@@H](O)C1 | 8.4 | > 250 | Non-toxic | 70
21 | CC(C)(C)c1ccc(NC(=O)/C=C/[C@H]2C[C@@H](O)[C@@H](O)C2)cc1 | 4.4 | > 180 | Toxic | –
22 | CCCCCCOC(=O)/C=C/[C@H]1C[C@@H](O)[C@@H](O)C1 | 150 | > 350 | – | –
23 | Cc1ccc(NC(=O)/C=C/[C@H]2C[C@@H](O)[C@@H](O)C2)cc1 | 190 | > 190 | – | –
24 | O=C(/C=C/[C@H]1C[C@@H](O)[C@@H](O)C1)Nc1ccc(F)cc1 | > 180 | > 180 | – | –
25 | O=C(O)/C=C/[C@H]1C[C@@H](O)[C@@H](O)C1 | 110 | > 350 | – | –
26 | CCCCNC(=O)/C=C/[C@H]1C[C@@H](O)[C@@H](O)C1 | > 250 | > 250 | – | –
27 | O=C(/C=C/[C@H]1C[C@@H](O)[C@@H](O)C1)Nc1ccncc1 | > 20 | > 200 | – | –
28 | CNC(=O)CC[C@H]1C[C@@H](O)[C@@H](O)C1 | 15 | > 250 | – | –
29 | O=C(/C=C/[C@H]1C[C@@H](O)[C@@H](O)C1)NO | 13 | > 250 | – | –
30 | CCNC(=O)/C=C/[C@H]1C[C@@H](O)[C@@H](O)C1 | 250 | > 250 | – | –
31 | O=C(/C=C/[C@H]1C[C@@H](O)[C@@H](O)C1)Oc1ccccc1 | 100 | > 200 | – | –
32 | CNC(=O)/C=C/[C@H]1C[C@@H](O)[C@@H](O)C1 | 5.4 | > 250 | Non-toxic | 70
33 | C/C=C/[C@@H]1C[C@@H](O)[C@@H](O)C1 | 350 | > 350 | – | –
34 | COc1ccc(NC(=O)/C=C/[C@H]2C[C@@H](O)[C@@H](O)C2)cc1 | 3.1 | > 180 | Toxic | –
35 | COC(=O)/C=C/[C@H]1C[C@@H](O)[C@@H](O)C1 | > 350 | > 350 | – | –

— ChEMBL document CHEMBL1759855, “Synthesis and innate immunosuppressive effect of 1,2-cyclopentanediol derivatives” (Eur J Med Chem, 2011)
